According to US5338726A, “Endothelin converting enzyme inhibitors” (Abbott Laboratories, priority 1992, dated 1994):
Non-standard residues stand in square brackets, D forms with d. Residues, ends and D or L forms follow the SMILES beside them. *: point of attachment. Sta = CC(C)C[C@H](N)[C@@H](O)CC(=O)O; Isovaleryl = CC(C)CC(=O)*

These compounds were tested against endothelin converting enzyme (active Mono Q fractions of rat lung plasma membranes) (assay: Endothelin converting enzyme activity in active Mono Q fractions). Details: read-out: IC50 for inhibition of endothelin converting enzyme activity.
Type: biochemical
Method: (§1) Rat lung plasma membranes were prepared and assayed for endothelin converting enzyme activity as previously described (Biochem. Biophys. Res. Commun. 171 1291 (1990)).
Rat lung plasma membranes (400 mg) were solubilized by stirring at 4° C. for 45 minutes in 50 ml of 20 mM Tris-HCl, pH 7.7 containing 2 mM dithiothreitol and 46 mM NOG (Buffer C). The unsolubilized materials were removed by centrifugation at 60,000×g for 30 minutes. Solubilized materials were injected onto a Mono Q HR 10/10 column (Pharmacia) and eluted with concentration gradients of 0-1M NaCl in 240 ml of Buffer C at 4 ml/minute. (Endothelin converting enzyme active fractions were eluted from 0.07 to 0.14 M NaCl). Absorbance at 280 nm was monitored by a LKB 2150 UVICORD SD monitor. Fractions were analyzed for endothelin converting enzyme activity and by SDS-PAGE. Protein content was determined by the Bio-Rad Protein Assay kit.
The enzyme has an apparent molecular mass of 90 KD as estimated by SDS-PAGE or gel filtration and appears to be a single peptide protein. […] The enzyme may exist as isozymes with pIs at 6.2 and 6.3. […] The endothelin converting enzyme activity in active Mono Q fractions was inhibited by pepstatin A with an IC50 of 5 nM. […]

| Compound | IC50 [nM] |
| --- | --- |
| CC(C)CC(=O)N[C@H](C(=O)N[C@H](C(=O)N[C@@H](CC(C)C)[C@@H](O)CC(=O)N[C@@H](C)C(=O)N[C@@H](CC(C)C)[C@@H](O)CC(=O)O)C(C)C)C(C)C [pepstatin A] (Isovaleryl-VV[Sta]A[Sta]-OH) | 5 |

What follows are compounds tested on solubilized endothelin converting enzyme (P3 from rat lung) (assay: Endothelin converting enzyme activity of solubilized enzyme with protease inhibitors). Details: at 40 mM; solubilized ECE (P3 from rat lung).
Type: biochemical
Method: as §1
The enzyme has an apparent molecular mass of 90 KD as estimated by SDS-PAGE or gel filtration and appears to be a single peptide protein. […] The enzyme may exist as isozymes with pIs at 6.2 and 6.3. […] The endothelin converting enzyme activity in active Mono Q fractions was inhibited by pepstatin A with an IC50 of 5 nM. The-endothelin converting enzyme activity of solubilized endothelin converting enzyme (P3 from rat lung) is not inhibited at 40 mM by TLCK, aprotinin, PMSF, E-64, bestatin, phosphoramidon or thiorphan. The endothelin converting enzyme activity of active Mono Q fractions was stimulated by divalent metal cations in the order of Mn^+2 ≥Zn^+2 >Ca^+2 >Mg^+2 ≥Ba^+2 =Co^+2.

| Compound | inhibition of endothelin converting enzyme activity |
| --- | --- |
| O=C(O)CNC(=O)C(CS)Cc1ccccc1 (centres unmarked) [thiorphan] | not inhibited |
| Cc1ccc(S(=O)(=O)NC(CCCCN)C(=O)CCl)cc1 (centres unmarked) [TLCK] | not inhibited |
| CC(C)C[C@H](NP(=O)(O)O[C@@H]1O[C@@H](C)[C@H](O)[C@@H](O)[C@H]1O)C(=O)N[C@@H](Cc1c[nH]c2ccccc12)C(=O)O [phosphoramidon] | not inhibited |
| aprotinin | not inhibited |
| O=S(=O)(F)Cc1ccccc1 [PMSF] | not inhibited |
| CC(C)C[C@H](NC(=O)[C@@H](O)[C@H](N)Cc1ccccc1)C(=O)O [bestatin] | not inhibited |
| CC(C)C[C@H](NC(=O)[C@H]1O[C@@H]1C(=O)O)C(=O)NCCCCN=C(N)N [Example E-64, E-64] | not inhibited |
